Experiment [1] deals with T1, apyrase (Solanum tuberosum, UniProt P80595). The protocol: (§1) 1. Leuconostoc sp MD 110 was grown by streaking a bead onto de Man Rogosa Sharpe agar to revive bead for stock (place in 30° C. incubator overnight).
1.1. A loop was taken from this plate and transferred to 10 ml Tryptone Soya Broth and grown at 30° C. for exactly 40 hours.
Cells were washed twice in ice-cold Reverse Osmosis water in centrifuge (4500 rpm for 10 mins), resuspended in 10 ml cold Reverse Osmosis water and stored in the fridge.
(§2) 1.3. Cells for the experiment were prepared using a 100× dilution of this stock with a sterile solution of glucose (10 g/l) and MgCl2 (5 mM) at room temperature. Cells were diluted into this solution at least 20 minutes prior to starting each experiment to allow adaptation to the new conditions.
A special luciferase/luciferin reagent formulated with a detergent-resistant luciferase (Promega, Ultraglo) enzyme was prepared. This was reconstituted in 17.5 ml of 30 mM phosphate /10 g/l a solution of long chain fatty acid ethoxylates.
(§3) 2. 1 ml of the above cell suspension was added to a cuvette.
3. The suspension was then treated with 1 ml of reconstituted apyrase 0.96 units per ml, and 10 μl of ATP (10^−7M) was added and left for 15 minutes at room temperature.
(§4) 4. Two 100 μl aliquots of the treated suspension was transferred to clean cuvettes.
5. To these two cuvettes 100 μl of the luciferase/luciferin reagent formulated with a detergent-resistant luciferase (Promega, Ultraglo) Ultraglo/phosphate/solution of long chain fatty acid ethoxylates was added.
(§5) 6. After 5 minutes extraction time Cuvette 1 was read in a luminometer.
(§6) 7. Cuvette 1 was removed from the luminometer and 10 μl of 10^−7M ATP was added to standardise.
(§7) 8. The sample was returned to the luminometer and read again, then read 5 consecutive times in a row in order to determine the final kinetics of the reaction.
(§8) 9. After a further five minutes the second water cuvette was read in a luminometer.
(§9) 10. Steps 7-11 were repeated for cuvette 2.
11. For the control, steps 4 to 13 were repeated but using a luciferase/luciferin reagent formulated with a detergent-resistant luciferase (Promega, Ultraglo) made by reconstituting in 25 mM HEPES buffer pH 7.75 with a solution of long chain fatty acid ethoxylates (10 g/l).

The target in experiment [2] is T1, apyrase. The protocol:
as §1
a. A loop was taken from this plate and transferred to 10 ml Tryptone Soya Broth and grown at 30° C. for exactly 40 hours.
b. […] Cells were washed twice in ice-cold Reverse Osmosis water in centrifuge (4500 rpm for 10 mins), resuspended in 10 ml cold Reverse Osmosis water and stored in the fridge. c. Cells for the experiment were prepared using a 100× dilution of this stock with a sterile solution of glucose (10 g/l) and MgCl2 (5 mM) at room temperature. Cells were diluted into this solution at least 20 minutes prior to starting each experiment to allow adaptation to the new conditions.
d. A luciferase/luciferin reagent formulated with a detergent-resistant luciferase (Promega, Ultraglo) (Liquid Lysate) enzyme was reconstituted in 17.5 ml phosphate buffer pH 7.75.
as §3
3. The suspension was then treated with 1 ml of reconstituted apyrase 0.96 units per ml, and […] of ATP (10^−7M) was added and left for 15 minutes at room temperature.
as §4
5. 100 μl of the luciferase/luciferin reagent formulated with a detergent-resistant luciferase (Promega, Ultraglo)/phosphate luciferase was added to each of the cuvettes.
6. To the remaining 2 cuvettes 100 μl of a solution of long chain fatty acid ethoxylates (the extractant) was added and a timer started.
7. Cuvette 1 was read in a luminometer after 5 minutes extraction time.
8. Cuvette 1 was removed from the luminometer and 10 μl of 10^−7M ATP was added to standardise.
9. The sample was returned to the luminometer and read again, then read 5 consecutive times in a row in order to determine the final kinetics of the reaction.
10. After a further five minutes steps 9-11 were repeated for cuvette 2.
11. For the control steps 4 to 13 were repeated but using a luciferase/luciferin reagent formulated with a detergent-resistant luciferase (Promega, Ultraglo) reconstituted in 25 mM HEPES buffer pH 7.75.
This is another data set of the same source.

For experiment [3], the target named is T1, apyrase. The protocol:
as §1
1.1 A loop was taken from this plate and transferred to 10 ml Tryptone Soya Broth and grown at 30° C. for exactly 40 hours.
Cells were washed twice in ice-cold RO water in centrifuge (4500 rpm for 10 mins), resuspended in 10 ml cold Reverse Osmosis water and stored in the fridge.
as §2
1 ml of the above cell suspension was added to a cuvette.
2. The suspension was then treated with 1 ml of reconstituted apyrase 0.96 units per ml, and 10 μl of ATP (10^−7M) was added and left for 15 minutes at room temperature.
3. 2×100 μl aliquots of the treated suspension were added to clean cuvettes.
4. To these 2 cuvettes 20 μl of 100 μM pH 7.75 phosphate solution was added.
5. 100 μl of the extractant (a solution of long chain fatty acid ethoxylates) was added and a timer started.
as §5, §6, §7, §8, §9
11. For the control, steps 4 to 13 were repeated but using 20 μl of Reverse Osmosis water in place of 20 μl phosphate.
This is another data set of the same source.

The target of experiment [4] is T1, apyrase. The protocol: A loop was taken from this plate and transferred to 10 ml Tryptone Soya Broth and grown at 30° C. for exactly 40 hours.
1.3. […] Cells were washed twice in ice-cold Reverse Osmosis water in centrifuge (4500 rpm for 10 mins), resuspended in 10 ml cold Reverse Osmosis water and stored in the fridge.
Cells for the experiment were prepared using a 100× dilution of this stock with a sterile solution of glucose (10 g/l) and MgCl2 (5 mM) at room temperature. Cells were diluted into this solution at least 20 minutes prior to starting each experiment to allow adaptation to the new conditions.
as §3
This is another data set of the same source.

The values below come from patent US10196671B2, “Assay method for the detection of viable microbial cells in a sample” (3M INNOVATIVE PROPERTIES COMPANY, priority 2006, dated 2019).

T1 sequence (P80595 whole entry, species assumed): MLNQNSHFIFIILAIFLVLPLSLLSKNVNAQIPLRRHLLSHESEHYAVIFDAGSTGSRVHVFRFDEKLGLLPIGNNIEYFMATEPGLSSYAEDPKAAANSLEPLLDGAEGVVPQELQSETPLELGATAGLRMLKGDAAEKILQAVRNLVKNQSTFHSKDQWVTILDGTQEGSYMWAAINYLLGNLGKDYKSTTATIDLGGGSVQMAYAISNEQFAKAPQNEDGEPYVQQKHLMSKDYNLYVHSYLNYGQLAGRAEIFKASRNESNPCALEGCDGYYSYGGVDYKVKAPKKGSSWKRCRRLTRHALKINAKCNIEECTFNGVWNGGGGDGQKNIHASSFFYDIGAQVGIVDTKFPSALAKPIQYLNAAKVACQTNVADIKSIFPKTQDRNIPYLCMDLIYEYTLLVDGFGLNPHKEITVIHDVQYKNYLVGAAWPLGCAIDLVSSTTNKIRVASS

phosphate: the “amount of ATP per assay higher at T=10 than at T=5” value at apyrase [1] (30 mM phosphate in luciferase/extractant reagent) was determined as 42%. Also, the “amount of ATP per assay at T=5” value at apyrase [1] (30 mM phosphate in luciferase/extractant reagent, T=5) is on record as 0.0052 picomoles. For the same substance, the “amount of ATP per assay at T=10” value on apyrase [1] (30 mM phosphate in luciferase/extractant reagent, T=10) amounted to 0.0074 picomoles. Besides, on apyrase [1] (in 75 seconds, 30 mM phosphate in luciferase/extractant reagent), the “increase of RLU values (kinetics)” value was found to be 13%. In addition, the “RLU signal higher at T=10 than at T=5” value on apyrase [1] (luciferase reagent in 30 mM phosphate / 10 g/l long chain fatty acid ethoxylates) is reported as 57%. Further, the “drop of assay signal (kinetics, FIG. 2.3)” value on apyrase [2] (in 50 seconds after ATP standard, phosphate buffer pH 7.75) is reported as 10%. Also, on apyrase [2] (luciferase reagent reconstituted in phosphate buffer pH 7.75), the “RLU produced after 5 minutes extraction still remaining at T=10 minutes” value turned out to be 73.7%. In addition, at apyrase [2] (phosphate buffer pH 7.75), the “amount of ATP at T=10 as percentage of that present at T=5” value came to 81.3%. For the same substance, the “amount of ATP at T=5” value at apyrase [2] (phosphate buffer pH 7.75, T=5 minutes) worked out at 0.035 picomoles. Besides, the “amount of ATP remaining at T=10” value at apyrase [2] (phosphate buffer pH 7.75, T=10 minutes) amounted to 0.029 picomoles. Also, the “inhibition of apyrase, ATP broken down in 5 minutes (FIG. 4.2)” value against apyrase [3] (20 μl of 100 μM pH 7.75 phosphate solution) is “does inhibit apyrase”. In addition, the “RLU produced after 5 minutes extraction remaining 5 minutes later” value on apyrase [3] (20 μl of 100 μM pH 7.75 phosphate solution added before extractant) amounted to 100%. In addition, the “level of ATP present in the assay, T-5 to T-10” value at apyrase [3] (20 μl of 100 μM pH 7.75 phosphate solution, patent believes it an artifact of the calculation) is “increased”. The “drop of RLU values (kinetics)” value at apyrase [3] (in 46 seconds, 20 μl of 100 μM pH 7.75 phosphate solution) is “around 1,400 RLU”. Further, the “rise in RLU from T-5 to T-10” value at apyrase [4] (30 mM phosphate mixed with the extractant, after 15 min apyrase 0.96 units per ml, Leuconostoc sp MD 110 suspension) is reported as 38%. For the same substance, the “inhibition of apyrase (kinetics, FIG. 1.3)” value against apyrase [4] (30 mM phosphate, ATP standard added, consecutive luminometer reads) is on record as “inhibits the action of apyrase”.
